Data set [1] can be described thus: Volume of distribution of the compound. The following applies: in vivo.
A short description of data set [2]: Plasma clearance of the compound.
The nature of data set [3]: Partition coefficient (logD). The following applies: octanol/water.
A short description of data set [4]: Half life was measured as time taken to decrease half of its initial concentration.

The term Vd denotes a proportionality between amount in the body and measured concentration, not a real space. High values mean wide distribution into tissue, low ones little distribution into tissue. What is called clearance is the volume of plasma or blood freed of the substance per unit of time. A higher clearance goes with a high capacity for elimination. As a reminder, the logD is the decadic logarithm of the distribution of all forms, ionised or not, between an organic phase and buffer at a given pH. Low values mean a more hydrophilic compound, high ones a more lipophilic compound. What is called half-life is how long it takes for the measured level to halve. Higher therefore signals slow decline.

Take `CO[C@H]1/C=C/O[C@@]2(C)Oc3c(C)c(O)c4c(O)c(c(/C=N/N5CCN(C)CC5)c(O)c4c3C2=O)NC(=O)/C(C)=C\C=C\[C@H](C)[C@H](O)[C@@H](C)[C@@H](O)[C@@H](C)[C@H](OC(C)=O)[C@@H]1C` [RIFAMPIN]: the Vd in data set [1] was determined as 8.8 L/kg. Further, the clearance in data set [2] was 32 mL/min/kg.

Take `CCOC(=O)C1=C(C)NC(C)=C(C(=O)OC)C1c1cccc(Cl)c1Cl` (stereo unspecified) [FELODIPINE]: the log distribution coefficient (logD) in data set [3] was 4.8.

For the molecule `CO[C@H]1/C=C/O[C@@]2(C)Oc3c(C)c(O)c4c(O)c(cc(O)c4c3C2=O)NC(=O)/C(C)=C\C=C\[C@H](C)[C@H](O)[C@@H](C)[C@@H](O)[C@@H](C)[C@H](OC(C)=O)[C@@H]1C` [RIFAMYCIN], in data set [4], the half-life was 0.33 h. In addition, the distribution volume (Vd) in data set [1] came out at 1.2 L/kg. In addition, the clearance in data set [2] is 80 mL/min/kg.

In data set [4], `CCOC(=O)C1=C(C)NC(C)=C(C(=O)OC)C1c1cccc([N+](=O)[O-])c1` (stereo unspecified) [NITRENDIPINE] had a half-life of 4 h. This molecule also showed a distribution volume (Vd) in data set [1] of 3.8 L/kg. Further, the log distribution coefficient (logD) in data set [3] is given as 4.2. The clearance in data set [2] is 21 mL/min/kg.

Molecule `CO[C@H]1/C=C/O[C@@]2(C)Oc3c(C)c(O)c4c(c3C2=O)C2=NC3(CCN(CC(C)C)CC3)NC2=C(NC(=O)/C(C)=C\C=C\[C@H](C)[C@H](O)[C@@H](C)[C@@H](O)[C@@H](C)[C@H](OC(C)=O)[C@@H]1C)C4=O` [RIFABUTIN] gave a half-life in data set [4] of 45 h. In addition, the Vd in data set [1] stood at 266 L/kg. In data set [2], this molecule displayed a clearance of 80 mL/min/kg.

In turn, `CCOC(=O)C1=C(COCCN)NC(C)=C(C(=O)OC)C1c1ccccc1Cl` (stereo unspecified) [AMLODIPINE] returned a logD in data set [3] of 1.8.

`COC(=O)C1=C(C)NC(C)=C(C(=O)OC)C1c1ccccc1[N+](=O)[O-]` [NIFEDIPINE] had a half-life in data set [4] of 1.9 h. The same molecule came in with a distribution volume (Vd) in data set [1] of 1 L/kg.

These data come from ChEMBL document CHEMBL1134401, “Property-based design: optimization of drug absorption and pharmacokinetics” (J Med Chem, 2001).
